The text below walks through data of PubChem BioAssay (NCI).

What all share (assay): NCI tumour cell line growth inhibition, 48 h
Assay [1] concerns A498 renal.
The subject of assay [2] is CAKI-1 renal.
For assay [3], the system named is HS 578T breast.
The test system of assay [4] is MALME-3M melanoma.
In assay [5] the test system is MDA-MB-231 breast.
The subject of assay [6] is MOLT-4 leukemia.
Assay [7] concerns OVCAR-5 ovarian.
In assay [8] the test system is SK-MEL-5 melanoma.
The test system of assay [9] is UACC-62 melanoma.
Assay [10] has as its system UO-31 renal.

SMILES strings stand for the structures. Several values for one entry are separate records, joined by “and”; a condition that tells them apart may be missing. Identical values can stand only once.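 Values below derive from 48-hour exposures of cells grown in 96-well plates, with endpoints linearly interpolated between the two concentrations bracketing the appropriate inhibition level. Here, GI50 denotes the concentration required for 50% inhibition of growth. TGI: concentration producing complete growth inhibition.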 A value given as a limit tells only on which side of the number the result lay.

Regarding `C=C(C)[C@@H]1CC[C@]2(C(N)=O)CC[C@]3(C)[C@H](CC[C@@H]4[C@@]5(C)CC[C@H](O)C(C)(C)[C@@H]5CC[C@]43C)[C@@H]12`, the GI50 is 12.2 µM in [1]; 1.98 µM in [2]; 5.74 µM in [3]; 2.39 µM in assay [4]; 1.97 µM in assay [5]; 3.43 µM in [6]. Besides, the GI50 in assay [7] was 3.78 µM; in assay [8], 5.22 µM; in assay [9], 4.2 µM; in [10], 1.72 µM. Besides, the TGI in [1] is 76.5 µM; in [2] it was 4.98 µM; in assay [3], above 100 µM; in assay [4] it was 8.15 µM; in assay [5] it was 4.6 µM; in assay [6] it was 18.3 µM. Moreover, the TGI was found to be 16.5 µM in assay [7], 19.2 µM in assay [8], 23.1 µM in assay [9] and 3.34 µM in [10].

As for `CC(C)CC1C(=O)N2CCC[C@H]2C2(O)O[C@](NC(=O)C3C=C4c5cccc6[nH]c(Br)c(c56)C[C@H]4N(C)C3)(C(C)C)C(=O)N12` (stereo partly drawn), the GI50 in [1] was 3.21 µM; in assay [2], 2.81 µM; in [3], 68.9 µM; in [4] it was above 100 µM; in assay [6] it was 5.06 µM; in assay [8] it was 4.57 µM. The GI50 in assay [9] was 29.7 µM; in [10] it was 2.02 µM. Besides, the TGI in assay [1], in assay [2], in assay [3], in [4], in assay [5] and in [6] was above 100 µM each time. The TGI in [7], in assay [8], in assay [9] and in assay [10] was above 100 µM each time.

In the case of `C[C@H]1CC[C@H]([C@@H](C)[C@H]2[C@@H](O)C[C@H]3[C@@H]4CC[C@H]5C[C@@H](O)CC[C@]5(C)[C@H]4CC[C@]23C)NC1`, the TGI was 32.1 µM in assay [1]; 34.3 µM in assay [2]; 57.7 µM in assay [3]; 33 µM in assay [4]; 47.9 µM in assay [5]; 27.4 µM in assay [6]. Moreover, the TGI in [7] was 49.4 µM; in assay [8], 44 µM; in assay [9] it was 28.5 µM; in assay [10], 30.9 µM.

Regarding `COC(=O)C(Cc1cnc[nH]1)NC(=O)CNC(=O)CCCn1c(=O)c2c3ccccc3n(C)c2n2nnc(-c3ccccc3)c12` (stereo not drawn), the GI50 in assay [1], in [2], in [3], in assay [4], in assay [5] and in assay [6] was above 100 µM throughout. Moreover, the GI50 in assay [7], in assay [8], in [9] and in [10] was above 100 µM in each case. The TGI in assay [1], in [2], in assay [3], in [4], in assay [5] and in assay [6] was above 100 µM throughout. The TGI in [7], in assay [8], in assay [9] and in assay [10] was above 100 µM each time.

With `CO/[N+]([O-])=C\C(=O)N/C=C/C(=O)O`, the TGI in assay [1], in assay [2], in [3], in assay [4], in assay [5] and in [6] was above 100 µM in each case. In addition, the TGI in assay [7], in assay [8], in assay [9] and in [10] was above 100 µM in each case.

Consider `CCN(CC)CC.CCOc1ccc(NC(=O)N=C=[N-])cc1.[CH-]1CCCCC1.[CH-]1CCCCC1.[CH-]1CCCCC1.[Cl-].[Sn+4]`, for which the GI50 in assay [1] was 0.0423 µM; in assay [2], 0.0282 µM; in assay [3], 0.0565 µM; in assay [4], 0.0452 µM; in [5], 0.103 µM; in [6], 0.0281 µM. For the same compound, the GI50 in assay [7] was 0.0427 µM; in assay [8], 0.0303 µM; in [9], 0.0228 µM; in [10] it was 0.0452 µM. In addition, the TGI turned out to be 0.0959 µM in [1]; 0.0969 µM in assay [2]; 0.47 µM in [3]; 0.119 µM in [4]; 0.25 µM in [5]; 0.233 µM in assay [6]. The TGI in [7] is 0.114 µM; in [8], 0.0941 µM; in [9] it was 0.0559 µM; in assay [10] it was 0.0928 µM.

Turning to `Fc1ccc(-c2nn3c(CNc4ccccc4)nnc3s2)cc1`, the GI50 in assay [1] was 37 µM; in [2] it was 19.4 µM; in assay [3], 49.7 µM; in assay [4], 21.2 µM; in [5], 27.9 µM; in [6], 27 µM. Further, the GI50 is 30.2 µM in [7], 17.5 µM in [8], 18.4 µM in assay [9] and 42.8 µM in assay [10]. Further, the TGI in assay [1] is above 100 µM; in assay [2], 49.2 µM; in assay [3] it was above 100 µM; in assay [4], 94.6 µM; in assay [5] it was above 100 µM; in assay [6] it was above 100 µM. Also, the TGI in [7] is above 100 µM; in assay [8], 36.7 µM; in assay [9], 53.7 µM; in assay [10] it was above 100 µM.

On to `O=C(c1ccc(OCCN2CCCCC2)cc1)c1c(-c2ccc(O)cc2)sc2cc(O)ccc12`, for which the GI50 in assay [1] is 11.6 µM; in [2], 4.65 µM and 14.4 µM; in assay [3] it was 2.99 µM and 9.71 µM; in [4], 6.05 µM and 13.5 µM; in assay [5], 10.4 µM and 9.02 µM; in assay [6] it was 2.8 µM and 4.86 µM. Moreover, the GI50 is 16 µM and 20.6 µM in assay [7]; 9.51 µM and 5.32 µM in assay [8]; 12 µM and 13.7 µM in [9]; 10.1 µM and 9.8 µM in assay [10]. Besides, the TGI in [1] was 26.2 µM; in [2], 20.6 µM and 34.1 µM; in [3], 22.8 µM and 47.8 µM; in assay [4], 23.5 µM and 28.9 µM; in assay [5] it was 23.2 µM and 23.6 µM; in assay [6], 10.8 µM and 23.2 µM. The TGI in assay [7] was 30.8 µM and 43.7 µM; in assay [8], 21.4 µM and 16.9 µM; in assay [9], 25.8 µM and 27.2 µM; in assay [10], 22.3 µM and 27.7 µM.
